Measured values as given in ChEMBL document CHEMBL1201862, “PubChem BioAssay data set” (2004).
Calls of active or inactive are those of the source.

Columns and labels:
[1] = biological target: T1, Short transient receptor potential channel 4 (Mus musculus, UniProt Q9QUQ5); test: block of DAMGO-driven TRPC4 calcium entry – cell-based, HEK293 TRPC4/mu-opioid, Fluo-4 calcium, dose response (AID 434942); type: functional;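 also: potency of inhibitors blocking the TRPC4 calcium response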
T1 sequence (Q9QUQ5 whole entry): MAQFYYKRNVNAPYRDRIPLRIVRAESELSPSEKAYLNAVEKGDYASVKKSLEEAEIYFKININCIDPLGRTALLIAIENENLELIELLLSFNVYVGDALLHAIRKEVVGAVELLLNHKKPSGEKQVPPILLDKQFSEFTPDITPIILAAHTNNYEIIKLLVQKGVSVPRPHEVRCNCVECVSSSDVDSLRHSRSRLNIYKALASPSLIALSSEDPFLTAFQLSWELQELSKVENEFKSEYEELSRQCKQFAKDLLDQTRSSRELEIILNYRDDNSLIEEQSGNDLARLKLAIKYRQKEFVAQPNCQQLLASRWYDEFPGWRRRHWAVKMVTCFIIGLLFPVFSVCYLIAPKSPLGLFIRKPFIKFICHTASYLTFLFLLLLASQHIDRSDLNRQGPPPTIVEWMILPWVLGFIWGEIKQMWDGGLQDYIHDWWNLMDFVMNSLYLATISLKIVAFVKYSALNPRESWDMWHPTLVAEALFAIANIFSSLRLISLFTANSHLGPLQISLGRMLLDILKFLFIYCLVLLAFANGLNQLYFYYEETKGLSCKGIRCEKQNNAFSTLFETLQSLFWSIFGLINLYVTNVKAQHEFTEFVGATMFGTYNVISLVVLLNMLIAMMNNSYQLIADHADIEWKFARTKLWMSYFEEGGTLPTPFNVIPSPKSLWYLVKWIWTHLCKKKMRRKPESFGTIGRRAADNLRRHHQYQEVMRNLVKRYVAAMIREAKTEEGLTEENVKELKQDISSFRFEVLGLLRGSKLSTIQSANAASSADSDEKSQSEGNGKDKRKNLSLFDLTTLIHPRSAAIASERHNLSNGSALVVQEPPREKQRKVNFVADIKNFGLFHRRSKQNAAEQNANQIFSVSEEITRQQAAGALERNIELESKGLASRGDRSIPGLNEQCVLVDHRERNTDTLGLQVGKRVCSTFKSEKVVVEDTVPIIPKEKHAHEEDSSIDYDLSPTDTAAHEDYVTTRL

[2] = luciferase reporter signal suppression in cells – H4 neuroglioma cells, luminescence, dose response (AID 1990); type: functional, cell-based
BJ [3] = test: BJ-TERT fibroblast viability loss – cell-based, RAS-independent, luminescence, dose response (AID 1933); type: functional; settings: Homo sapiens
[4] = Luminescence Cell-Based Dose Response HTS to Identify Inhibitors of 5'UTR Stem-Loop Driven Prion Protein mRNA Translation in H4 Neuroglioblastoma Cells. [Related pubchem assays: 1827 (Project Summary), 1813 (Primary HTS)]; type: functional
[5] = alpha-synuclein stem-loop luciferase translation blockers – H4 neuroglioma cells, luminescence, confirmation (AID 1988); type: functional, cell-based
BJ [6] = test: cells; type: functional, cell-based; settings: Homo sapiens
BJ [7] = test: BJ-TERT-LT-ST fibroblast viability loss – cell-based, RAS-independent, luminescence, dose response (AID 1935); type: functional; settings: Homo sapiens;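 also: BJ fibroblasts immortalized with TERT plus LT and ST oncogenes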
[8] = DRD fibroblast viability loss – cell-based, non-viral oncogenic, luminescence, dose response (AID 1934); type: functional; settings: Homo sapiens
[9] = HEK-293T viability loss after treatment – luminescence, T-cell screen hits, cytotoxicity control for TCR NF-kB inhibitor project, dose response (AID 489026); type: functional, cell-based;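 also: cells exposed to compound about 14 hours before the viability readout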
[10] = biological target: Glucose-6-phosphate 1-dehydrogenase (Homo sapiens, UniProt P11413); test: inhibition of Homo sapiens G6PD, dose series – biochemical, fluorescence, selectivity assay for P. falciparum G6PD inhibitor project, dose response (AID 504792); type: functional
Sequence of Glucose-6-phosphate 1-dehydrogenase (P11413 whole entry): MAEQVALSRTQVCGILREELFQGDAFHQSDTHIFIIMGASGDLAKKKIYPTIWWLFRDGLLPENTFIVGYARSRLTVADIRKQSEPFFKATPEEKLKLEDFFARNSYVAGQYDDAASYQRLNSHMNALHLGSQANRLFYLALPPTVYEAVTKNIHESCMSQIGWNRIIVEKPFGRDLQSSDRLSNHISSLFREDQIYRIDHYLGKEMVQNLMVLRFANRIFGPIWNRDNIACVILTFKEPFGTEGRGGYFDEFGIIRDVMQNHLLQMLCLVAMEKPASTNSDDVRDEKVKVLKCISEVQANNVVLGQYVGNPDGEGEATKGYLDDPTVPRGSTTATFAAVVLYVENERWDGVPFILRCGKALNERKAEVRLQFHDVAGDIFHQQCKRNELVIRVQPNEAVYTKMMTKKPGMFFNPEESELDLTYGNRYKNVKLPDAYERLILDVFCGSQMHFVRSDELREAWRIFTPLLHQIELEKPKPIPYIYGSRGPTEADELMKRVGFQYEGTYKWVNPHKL

[11] = THP-1 cell cytotoxicity, dose response, cytotoxicity control for non-replicating M. tuberculosis project (AID 489025); type: functional
[12] = Vero E6 cell cytotoxicity, dose response, cytotoxicity control for non-replicating M. tuberculosis project, secondary assay (AID 492998); type: functional, VeroE6; settings: Vero C1008
cells = type: functional
[13] = biological target: T2, Heat shock factor protein 1 (Mus musculus, UniProt P38532); test: decrease of HSF1-responsive luciferase luminescence – cell-based, NIH3T3, dose retest, confirmation (AID 2382); type: functional;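 also: NIH3T3 fibroblasts with HSF1-driven luciferase reporter stressed by proteasome inhibitor MG132; luminescence from HSF1-driven luciferase expression after 8 hours of MG132 stress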
T2 sequence (P38532 whole entry): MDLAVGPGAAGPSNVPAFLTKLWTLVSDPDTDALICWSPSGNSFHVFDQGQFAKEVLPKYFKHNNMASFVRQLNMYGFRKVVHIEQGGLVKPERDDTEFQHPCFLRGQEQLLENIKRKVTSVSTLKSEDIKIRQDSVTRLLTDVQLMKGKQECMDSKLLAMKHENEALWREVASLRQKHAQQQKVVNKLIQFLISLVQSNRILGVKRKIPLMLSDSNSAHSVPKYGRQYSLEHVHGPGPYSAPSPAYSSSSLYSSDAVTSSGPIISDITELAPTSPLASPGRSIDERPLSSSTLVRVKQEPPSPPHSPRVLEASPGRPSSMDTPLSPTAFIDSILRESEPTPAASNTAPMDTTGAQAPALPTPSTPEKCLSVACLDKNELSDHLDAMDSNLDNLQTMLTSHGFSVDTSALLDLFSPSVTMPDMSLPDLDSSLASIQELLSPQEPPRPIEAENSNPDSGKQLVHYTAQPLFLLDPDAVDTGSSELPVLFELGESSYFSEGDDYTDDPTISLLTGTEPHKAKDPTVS

Large T antigen = Large T antigen (Simian virus 40, UniProt P03070); type: functional, Betapolyomavirus macacae;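 also: Confirmatory-stage PubChem screen for compounds that inhibit SV40 T antigen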
Sequence of Large T antigen (P03070 whole entry): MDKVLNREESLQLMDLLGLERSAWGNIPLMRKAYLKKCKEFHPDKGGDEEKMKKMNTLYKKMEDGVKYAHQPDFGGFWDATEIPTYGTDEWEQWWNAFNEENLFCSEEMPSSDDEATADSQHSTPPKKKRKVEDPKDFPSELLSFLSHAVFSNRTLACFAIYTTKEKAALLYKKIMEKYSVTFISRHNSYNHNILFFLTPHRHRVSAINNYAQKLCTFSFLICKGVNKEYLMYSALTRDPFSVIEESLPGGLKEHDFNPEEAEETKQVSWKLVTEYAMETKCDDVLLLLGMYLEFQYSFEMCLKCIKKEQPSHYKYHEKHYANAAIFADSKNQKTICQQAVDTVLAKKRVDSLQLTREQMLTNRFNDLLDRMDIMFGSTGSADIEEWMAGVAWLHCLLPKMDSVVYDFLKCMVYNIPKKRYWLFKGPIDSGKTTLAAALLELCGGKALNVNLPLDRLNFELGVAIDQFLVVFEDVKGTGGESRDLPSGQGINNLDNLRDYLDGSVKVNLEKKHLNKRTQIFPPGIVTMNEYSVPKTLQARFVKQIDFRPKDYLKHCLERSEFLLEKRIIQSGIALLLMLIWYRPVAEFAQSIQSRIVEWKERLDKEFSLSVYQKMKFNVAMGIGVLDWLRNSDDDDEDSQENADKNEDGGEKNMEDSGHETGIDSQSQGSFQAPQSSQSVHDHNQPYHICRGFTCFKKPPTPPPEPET

[14] = HEK-293T cell viability reduction – luminescence, B-cell screen hits, cytotoxicity control for BCR NF-kB inhibitor project, dose response (AID 489021); type: functional, cell-based;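 also: HEK-293T cells carrying an NF-kB luciferase reporter; cells exposed to compound for about 14 hours before viability readout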
[15] = biological target: T1, Short transient receptor potential channel 4; test: calcium entry via TRPC4 opening agents – cell-based, HEK293 TRPC4/mu-opioid, Fluo-4 calcium, dose response (AID 434937); type: functional
[16] = biological target: Delta-type opioid receptor (Homo sapiens, UniProt P41143); test: Counterscreen for agonists of heterodimerization of the mu 1 (OPRM1) and delta 1 (OPRD1) opioid receptors: Luminescence-based cell-based high throughput dose response assay to identify agonists of OPRD1 homodimerization. [Related pubchem assays (depositor defined):AID504326, AID504355, AID504692, AID504904, AID504905]; type: functional
Sequence of Delta-type opioid receptor (P41143 whole entry): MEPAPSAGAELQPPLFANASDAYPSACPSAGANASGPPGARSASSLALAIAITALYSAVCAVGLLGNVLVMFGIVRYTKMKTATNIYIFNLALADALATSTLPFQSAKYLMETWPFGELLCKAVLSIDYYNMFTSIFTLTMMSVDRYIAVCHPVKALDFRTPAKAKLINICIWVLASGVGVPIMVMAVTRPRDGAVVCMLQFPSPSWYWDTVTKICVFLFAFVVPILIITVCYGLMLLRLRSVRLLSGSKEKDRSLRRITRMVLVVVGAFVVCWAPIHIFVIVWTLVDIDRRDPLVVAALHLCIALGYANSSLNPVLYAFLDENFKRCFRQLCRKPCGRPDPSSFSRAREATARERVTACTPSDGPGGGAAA

Mu-type opioid receptor = Mu-type opioid receptor (Homo sapiens, UniProt P35372); test: Counterscreen for agonists of heterodimerization of the mu 1 (OPRM1) and delta 1 (OPRD1) opioid receptors: Luminescence-based cell-based high throughput dose response assay to identify agonists of OPRM1 homodimerization.; type: functional;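 also: U2OS cells expressing OPRM1 and beta-arrestin as split beta-galactosidase partners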
Sequence of Mu-type opioid receptor (P35372 whole entry): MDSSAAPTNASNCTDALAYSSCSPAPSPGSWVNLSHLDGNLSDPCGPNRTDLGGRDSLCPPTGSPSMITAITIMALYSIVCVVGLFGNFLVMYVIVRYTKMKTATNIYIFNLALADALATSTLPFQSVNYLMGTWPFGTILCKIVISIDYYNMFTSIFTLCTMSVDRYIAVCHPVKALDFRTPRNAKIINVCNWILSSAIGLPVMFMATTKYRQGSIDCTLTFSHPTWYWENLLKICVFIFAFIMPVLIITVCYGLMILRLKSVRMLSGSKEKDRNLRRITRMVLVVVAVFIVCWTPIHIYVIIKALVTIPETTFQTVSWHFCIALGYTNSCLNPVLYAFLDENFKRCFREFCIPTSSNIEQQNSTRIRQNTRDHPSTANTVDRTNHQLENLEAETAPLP

[17] = biological target: 5-hydroxytryptamine receptor 5A (Homo sapiens, UniProt P47898); test: Counterscreen for agonists of OPRM1-OPRD1 heterodimerization: luminescence-based cell-based high throughput dose response assay to identify agonists of 5-hydroxytryptamine (serotonin) 5A receptor (HTR5A). [Related pubchem assays (depositor defined):AID504326, AID504355, AID504692, AID504904, AID504905]; type: functional
Sequence of 5-hydroxytryptamine receptor 5A (P47898 whole entry): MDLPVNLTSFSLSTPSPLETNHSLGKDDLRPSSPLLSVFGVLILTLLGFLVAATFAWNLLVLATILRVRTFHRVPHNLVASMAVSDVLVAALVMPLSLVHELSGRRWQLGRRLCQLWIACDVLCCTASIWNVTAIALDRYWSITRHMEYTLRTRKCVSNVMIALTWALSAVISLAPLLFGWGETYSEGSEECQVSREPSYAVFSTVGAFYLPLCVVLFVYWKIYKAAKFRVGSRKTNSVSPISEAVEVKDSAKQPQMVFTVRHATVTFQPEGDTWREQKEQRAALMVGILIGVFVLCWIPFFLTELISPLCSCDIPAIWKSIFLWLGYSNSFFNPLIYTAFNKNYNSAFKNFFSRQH

HEK293 = test: EBV LMP1 TES2 canonical NF-kB signalling blockers – cell-based, HEK293, luciferase, cherry-pick, dose response (AID 588343); type: functional; settings: Homo sapiens
[18] = Luminescence Cell-Based Dose Retest to Confirm Inhibitors of Cancer Stem Cells. [Related pubchem assays (depositor defined):AID2717, AID2721]; type: functional; settings: Homo sapiens

CN1CCN(c2nc(-c3cccnc3)nc3scc(-c4ccccc4)c23)CC1
EC50 [1]: 11.9 µM (active)

O=C(c1cc(-c2ccncc2)nc2c(Cl)cccc12)N1CCN(c2ccccc2F)CC1
EC50 [2]: 7.93 µM (inconclusive) | EC50 (BJ [3]): 8.6 µM (inconclusive) | EC50 [4]: > 120 µM (not active) | EC50 [5]: 3.67 µM (active) | EC50 (BJ [6]): 18.9 µM (active) | EC50 (BJ [7]): 4.08 µM (active) | EC50 [8]: 12.8 µM (inconclusive) | IC50 [9]: > 80 µM (inactive)

O=C(Nc1nnc(S(=O)(=O)N2CCOCC2)s1)c1ccc(F)cc1
IC50 [10]: > 80 µM (inactive)

OCCNCc1cc(Br)ccc1OCc1ccc(Cl)cc1Cl
EC50 [1]: 3.35 µM (active)

FC(F)(F)c1nnc2ccc(Cl)nn12
CC50 [11]: 8.62 µM (active) | CC50 [12]: > 20 µM (active) | IC50 (cells): 1.82 µM (active)

O=C1COc2ccc(N3C(=O)C=CC3=O)cc2N1
EC50 [13]: 9.09 µM (active) | IC50 (Large T antigen): > 100 µM (active) | EC50 [1]: 6.68 µM (active)

COc1ccc(S(=O)(=O)Nc2cc3c(C(C)=O)c(C)oc3c3ccccc23)cc1
EC50 [2]: 2.35 µM (active) | EC50 (BJ [3]): 1.59 µM (active) | EC50 [4]: 2.67 µM (active) | EC50 [5]: 0.294 µM (active) | EC50 (BJ [6]): 4.49 µM (active) | EC50 (BJ [7]): 1.26 µM (active) | EC50 [8]: 1.91 µM (active) | IC50 [14]: > 80 µM (inactive)

Cc1nc([N+](=O)[O-])c(Br)n1Cc1ccccc1
CC50 [11]: 30.1 µM (active) | CC50 [12]: > 20 µM (active) | IC50 (cells): 9.77 µM (active)

CN(C)CCCN(C(=O)c1ccc(S(=O)(=O)N2CCc3ccccc3C2)cc1)c1nc2c(F)cc(F)cc2s1
EC50 [15]: 1.19 µM (active) | EC50 [16]: > 92.5 µM (inactive) | EC50 (Mu-type opioid receptor): 5.1 µM (active) | EC50 [17]: > 92.5 µM (inactive)

COc1ccc(N=C2C(=S)N(c3ccc(OC)cc3)C(=NS(=O)(=O)c3ccccc3)N2c2ccccc2)cc1
IC50 [10]: > 80 µM (inactive)

CCOC(=O)C1(CC2CC2)CCN(Cc2cnc(-c3ccccc3C)nc2)CC1
EC50 [15]: 5.31 µM (active) | EC50 [16]: > 92.5 µM (inactive) | EC50 (Mu-type opioid receptor): > 92.5 µM (inactive) | EC50 [17]: > 92.5 µM (inactive)

CCc1cccc(C)c1N=C(S)NCC(c1cccnc1)N(C)C (stereo unspecified)
EC50 [15]: 0.0467 µM (active) | EC50 [16]: 79.4 µM (inactive) | EC50 (Mu-type opioid receptor): > 92.5 µM (inactive) | EC50 [17]: > 92.5 µM (inactive)

Cc1nn(C(C)(C)C)c(C)c1/C=N/OC(=O)Nc1ccc(Cl)c(Cl)c1
EC50 [13]: < 0.16 µM (active) | IC50 [14]: > 80 µM (inactive) | AC50 (HEK293): 0.839 µM (active)

CC(C)(C)c1ccc(O)c(O)c1
IC50 [10]: > 80 µM (inactive) | AC50 [18]: 4.47 µM (active)
